The source of these data is article PMC8480759, “Inhibitors of histone deacetylase 6 based on a novel 3-hydroxy-isoxazole zinc binding group” (Journal of Enzyme Inhibition and Medicinal Chemistry, 2021).

Structures are written as SMILES.

The target in experiment [1] is T1, HDAC6 (Homo sapiens, UniProt Q9UBN7).
T1 sequence (Q9UBN7 1-1215): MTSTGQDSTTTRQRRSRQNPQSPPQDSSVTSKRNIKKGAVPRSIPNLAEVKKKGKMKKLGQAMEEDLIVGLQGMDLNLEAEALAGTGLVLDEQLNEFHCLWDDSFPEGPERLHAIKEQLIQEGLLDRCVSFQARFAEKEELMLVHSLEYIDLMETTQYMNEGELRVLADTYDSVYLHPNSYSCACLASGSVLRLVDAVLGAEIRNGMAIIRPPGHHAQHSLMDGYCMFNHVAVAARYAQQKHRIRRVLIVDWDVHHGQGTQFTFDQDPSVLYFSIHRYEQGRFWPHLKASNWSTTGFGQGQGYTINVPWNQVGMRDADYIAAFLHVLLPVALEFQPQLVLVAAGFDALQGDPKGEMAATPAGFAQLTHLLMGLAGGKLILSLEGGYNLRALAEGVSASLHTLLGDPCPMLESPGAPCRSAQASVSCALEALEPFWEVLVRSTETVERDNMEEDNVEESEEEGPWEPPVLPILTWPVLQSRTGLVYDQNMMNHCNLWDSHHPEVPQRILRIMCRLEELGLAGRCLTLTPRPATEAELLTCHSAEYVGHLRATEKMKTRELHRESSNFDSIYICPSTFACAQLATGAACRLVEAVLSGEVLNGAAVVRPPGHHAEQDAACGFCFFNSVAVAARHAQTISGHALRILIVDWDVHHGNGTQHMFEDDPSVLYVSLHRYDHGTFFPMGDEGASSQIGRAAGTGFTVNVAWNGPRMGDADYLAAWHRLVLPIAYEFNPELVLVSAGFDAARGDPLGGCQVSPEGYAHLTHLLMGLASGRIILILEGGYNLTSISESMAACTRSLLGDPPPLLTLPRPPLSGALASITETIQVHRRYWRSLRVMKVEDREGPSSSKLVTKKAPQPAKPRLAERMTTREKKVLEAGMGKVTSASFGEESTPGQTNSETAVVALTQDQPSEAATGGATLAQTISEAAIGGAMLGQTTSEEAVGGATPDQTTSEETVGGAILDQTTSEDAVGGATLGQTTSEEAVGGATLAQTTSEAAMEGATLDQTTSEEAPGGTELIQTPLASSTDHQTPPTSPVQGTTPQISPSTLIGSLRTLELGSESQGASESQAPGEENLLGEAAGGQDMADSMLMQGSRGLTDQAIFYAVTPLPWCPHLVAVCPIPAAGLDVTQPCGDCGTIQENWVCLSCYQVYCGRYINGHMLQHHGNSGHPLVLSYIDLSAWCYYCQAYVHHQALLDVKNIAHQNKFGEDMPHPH
The experiment can be described thus: HDAC6 assay with acetylated p53 peptide (residues 379–382, RHKKAc-AMC) as substrate. The experiment is classed as biochemical.

The test system of experiment [2] is acetylation levels of histone H3 (HDAC1 target) in DU145 cells. The experiment can be described thus: Western blot of histone H3 acetylation in DU145 cells. The experiment is classed as cell-based, human. Conditions: 24 h, 10 µM. The protocol:
The results corroborate the inhibitory activity of 17, 23, 25 and 27 at concentrations lower than 10 µM. […] HDACs contribution to CRPC is known[20] and the possibility to arrest CRPC proliferation by acting on HDAC targets is expanding in the scientific literature[21]^,[22]. After administration of the selected compounds for 24 h at 10 µM concentration, the effect on the acetylation levels of histone H3 and α-tubulin (respectively, HDAC1 and HDAC6 targets) was investigated. […] Lastly, in the same cell line, the anti-proliferative effect was measured in dose and time dependent manner (Figure S4).
Figure S3. Western blotting analysis of the tested and reference compounds SAHA and Tubastatin A on acetylation levels of histone H3 and α-tubulin in DU145 cells. GAPDH and H4 were used as a loading control. Densitometric values were analyzed using ImageJ Software and are reported on the top of bands as the ratio between loading control and acetylated target.
(1 picture or pasted object on this page, not shown here) […]
1.4 Western blot analysis
The prostate cancer cell line DU145 (ATCC) was grown in RPMI medium (Euroclone, Milan, Italy) with 10% fetal bovine serum (Euroclone), 2 mM L-glutamine (Euroclone), and antibiotics (100 U/mL penicillin, […] streptomycin) (Euroclone). Cells were stimulated with drugs for […]
Total Protein Extraction and western blot
After the induction with the test compounds at the indicated times and concentrations, DU145 cells were then harvested, washed with phosphate-buffered saline (PBS) (Euroclone), and lysed for 15 min at 4 °C in lysis extraction buffer with protease and phosphatase inhibitors (50 mM Tris -HCl pH 8.0, 150 mM NaCl, 1% NP40, 10 mM sodium fluoride, 0.1 mM sodium orthovanadate, […] phenylmethylsulfonyl fluoride 58 (PMSF), 20 g/mL aprotinin, […] leupeptin, […] antipain, 10 mM p -nitrophenyl phosphate, […] pepstatin A and 20 nM okada ic acid). Cells were vortexed then centrifuged at 13000 rpm for 30 min at 4 °C. Bradford assay (Biorad, Italy) was used to quantify protein concentration. […] The immune complexes were first detected with horseradish peroxidase-conjugated species-specific secondary antiserum (Bio-Rad Laboratories, Milan, Italy), and then by an enhanced chemiluminescence reaction (Bio-Rad Laboratories, Milan, Italy). […]
were harvested and washed twice with cold 1× PBS and lysed in Triton extraction buffer (TEB; PBS containing 0.5% Triton X 100 (v/v), 2 mM PMSF, and 0.02% (w/v) NaN3) for 10 min on ice, with gentle stirring. […] The samples were then centrifuged at 2000 rpm for 10 min at 4 °C; the concentration of protein in the supernatant was determined […]
using a Bradford assay (Bio-Rad, CA, USA). […] Semi-quantitative analysis was performed using ImageJ software. […]
(In general: Immunoblotting shows a protein as a band on a membrane.)

Take `Oc1cc(-c2ccc3c(c2)OCO3)on1` [Compound 25]: the “concentration showing inhibitory activity on HDAC6” value in experiment [1] is listed as “below 10 µM”. Moreover, the “effect on acetylation levels of histone H3” value in experiment [2] is “no effect”.

Take `Oc1cc(-c2ccc(NCc3ccccc3)cc2)on1` [Compound 23]: the “concentration showing inhibitory activity on HDAC6” value in experiment [1] is recorded as “below 10 µM”. The “effect on acetylation levels of histone H3” value in experiment [2] is recorded as “no effect”.
